Assay results reported in ChEMBL document CHEMBL4651402, “Screening of ~5500 FDA-approved drugs and clinical candidates for anti-SARS-CoV-2 activity” (2021).

Tested on: SARS-CoV-2
Experiment: microbe, parasite or virus in culture
Conditions: Severe acute respiratory syndrome coronavirus 2, Vero C1008, 48 h

Structure (SMILES) | IC50 [µM] | IC50 (read-out: pIC50 (converted)) [µM]
COc1cc2/c(=N/c3ccc(Br)cc3F)nc[nH]c2cc1OCC1CCN(C)CC1 [VANDETANIB] | > 20 | > 20
C=C(C)[C@@H]1CC[C@]2(C(=O)O)CC[C@]3(C)[C@H](CCC4[C@@]5(C)CC[C@@H](O)C(C)(C)C5CC[C@]43C)C12 (some centres undefined) | > 20 | > 20
Fc1ccc(-c2ccc3c(c2)[nH]c2ccncc23)cn1 [FLORTAUCIPIR] | > 20 | > 20
Cc1nnc(SCC2=C(C(=O)O)N3C(=O)[C@@H](NC(=O)Cn4cnnn4)[C@H]3SC2)s1 [CEFAZOLIN] | > 20 | > 20
CCC(=O)OC1(c2ccccc2)CCN(C)CC1 | > 20 | > 20
CC[C@H](NC(=O)c1c(O)c(-c2ccccc2)nc2ccccc12)c1ccccc1 [TALNETANT] | > 20 | > 20
O=C(Cn1c(=O)sc2ccc(Cl)cc21)N1CCN(CCO)CC1 [TIARAMIDE] | > 20 | > 20
CCc1cc(Nc2nc(-c3ccc(-n4cnc(C)c4)c(F)c3)cs2)c(C)cc1C | > 20 | > 20
Oc1ncnc2[nH]ncc12 [ALLOPURINOL] | > 20 | > 20
NS(=O)(=O)c1cc(C(=O)O)cc(N2CCCC2)c1Oc1ccccc1 [PIRETANIDE] | > 20 | > 20
OC[C@H]1O[C@@H]2O[C@H]3[C@H](O)[C@@H](O)[C@@H](O[C@H]4[C@H](O)[C@@H](O)[C@@H](O[C@H]5[C@H](O)[C@@H](O)[C@@H](O[C@H]6[C@H](O)[C@@H](O)[C@@H](O[C@H]7[C@H](O)[C@@H](O)[C@@H](O[C@H]1[C@H](O)[C@H]2O)O[C@@H]7CO)O[C@@H]6CO)O[C@@H]5CO)O[C@@H]4CO)O[C@@H]3CO [ALFADEX] | > 20 | > 20
COc1ccc(C(=O)c2ccc(C)cc2)c(O)c1 [MEXENONE] | > 20 | > 20
COc1ccc2c3c1O[C@H]1C(=O)CC[C@@]4(O)[C@@H](C2)N(C)CC[C@]314 [OXYCODONE] | > 20 | > 20
Fc1ccc2[nH]c3c(c2c1)CN(CCCc1cccnc1)CC3 [GEVOTROLINE] | > 20 | > 20
CCC(CC)[C@H](c1ccc(Nc2nc3ccccc3s2)cc1)n1cncn1 | > 20 | > 20
O=C(NOCC1CC1)c1ccc(F)c(F)c1Nc1ccc(I)cc1Cl [CI-1040] | > 20 | > 20
CC(C)=CCC1=C(O)C(=O)c2ccccc2C1=O [LAPACHOL] | > 20 | > 20
CN(C)CC(=O)O | > 20 | > 20
CCCCCCCCCCCCOS(=O)(=O)O | > 20 | > 20
CC(C(=O)O)c1cccc2c(-c3ccccc3)coc12 (centres undefined) [FURAPROFEN] | > 20 | > 20
COc1cccc2c1C(=O)c1c(O)c3c(c(O)c1C2=O)C[C@@](O)(C(C)=O)C[C@@H]3O[C@H]1C[C@H](N)[C@H](O)[C@H](C)O1 [DAUNORUBICIN] | > 20 | > 20
CC(Oc1ccc(Cl)cc1Cl)C(=O)O (stereo not drawn) [RAC-DICHLORPROP] | > 20 | > 20
NS(=O)(=O)c1cc2c(cc1Cl)N=CNS2(=O)=O [CHLOROTHIAZIDE] | > 20 | > 20
CC[C@@]1([C@@H]2O[C@@H]([C@H]3O[C@@](O)(CO)[C@H](C)C[C@@H]3C)C[C@@H]2C)CC[C@H]([C@]2(C)CC[C@]3(C[C@H](O)[C@@H](C)[C@@H]([C@@H](C)[C@@H](OC)[C@H](C)C(=O)O)O3)O2)O1 [MONENSIN] | > 20 | > 20

Structure (SMILES) | IC50 [µM] | IC50 (read-out: pIC50 (converted)) [µM]
C[C@@H]1CCC[C@@H](C)N1CCCC(O)(c1ccccc1)c1ccccn1 (some centres undefined) | > 20 | > 20
COC(=O)C(N)Cc1ccc(O)c(O)c1 (centres undefined) | > 20 | > 20
C=CCC1(CC=C)C(=O)NC(=O)NC1=O [ALLOBARBITAL] | > 20 | > 20
C[C@@H]1CN([C@H]2CC[C@](C#N)(c3ccc(F)cc3)CC2)CC[C@]1(C(=O)O)c1ccccc1 [LEVOCABASTINE] | > 20 | > 20
CN1CCN2c3ccccc3Cn3cccc3[C@@H]2C1 | > 20 | > 20
CN1CCC(OC(c2ccccc2)c2ccccc2)CC1 | > 20 | > 20
CN(C/C=C/c1ccccc1)Cc1cccc2ccccc12 [NAFTIFINE] | > 20 | > 20
COc1ccc2c3c([nH]c2c1)C(C)=NCC3 [HARMALINE] | > 20 | > 20
COc1cc(OC)c(C(=O)CCCN2CCCC2)c(OC)c1 [BUFLOMEDIL] | > 20 | > 20
CN(C)CCCSc1ccccc1NC(=O)/C=C/c1ccccc1 [CINANSERIN] | > 20 | > 20
CC(CCC(=O)NCCS(=O)(=O)O)C1CCC2C3C[C@H](O)[C@@H]4C[C@H](O)CC[C@]4(C)C3CC[C@]12C (some centres undefined) | > 20 | > 20
Cc1cc(NC(=O)NCCN2CCC(O)(Cc3ccccc3)CC2)c2ccccc2n1 [PALOSURAN] | > 20 | > 20
CNC(C)Cc1ccccc1OC (centres undefined) [METHOXYPHENAMINE] | > 20 | > 20
N=C(N)NCCN1CCCCCCC1 [GUANETHIDINE] | > 20 | > 20
C=CCOc1ccc(CC(=O)O)cc1Cl [ALCLOFENAC] | > 20 | > 20
C[C@H](N[C@@H](CCc1ccccc1)C(=O)O)C(=O)N1Cc2ccccc2C[C@H]1C(=O)O | > 20 | > 20
Nc1ccc(O)c(C(=O)O)c1 [MESALAMINE] | > 20 | > 20
O=C[C@@H]1CCCN1C(=O)CCC(=O)NCc1ccc(Cl)cc1 | > 20 | > 20
CN(C)C/C=C/C(=O)Nc1cc2c(Nc3ccc(F)c(Cl)c3)ncnc2cc1O[C@H]1CCOC1 [AFATINIB] | > 20 | > 20
CC1(Cn2ccnn2)[C@H](C(=O)O)N2C(=O)C[C@H]2S1(=O)=O (some centres undefined) | > 20 | > 20
CCOC(=O)c1c(C)cc(O)cc1O [ORSELLINIC ACID, ETHYL ESTER] | > 20 | > 20
C[C@@H]1CCC[C@H](C)N1NC(=O)c1ccc(Cl)c(S(N)(=O)=O)c1 [CLOPAMIDE] | > 20 | > 20
COc1cc2c(cc1OC)C(CCc1ccc(Cl)cc1)N(C)CC2 (centres undefined) [METHOPHOLINE] | > 20 | > 20
COC(=O)c1cnc2n1CCc1ccccc1C2=C1CCN(CCc2ccc(OCc3ccc4ccccc4n3)cc2)CC1 | > 20 | > 20

Structure (SMILES) | IC50 [µM] | IC50 (read-out: pIC50 (converted)) [µM]
CCNC1=Nc2ccc(Cl)cc2C(C)(c2ccccc2)O1 (centres undefined) [ETIFOXINE] | > 20 | > 20
C=CCNS(=O)(=O)c1cc(S(N)(=O)=O)c(Cl)cc1/N=C/C=C(\C)O | > 20 | > 20
C/C(=C(\OCCOc1ccc(Cl)cc1)c1ccc(Cl)cc1Cl)n1ccnc1 | > 20 | > 20
CC(=O)OCC(=O)[C@@]12N=C(C)O[C@@H]1C[C@H]1[C@@H]3CCC4=CC(=O)C=C[C@]4(C)[C@H]3[C@@H](O)C[C@@]12C [DEFLAZACORT] | > 20 | > 20
CCCN(CCC)CCc1cccc2c1CC(=O)N2 [ROPINIROLE] | > 20 | > 20
COc1cc(N)c(Cl)cc1C(=O)NC1CCN2CCCC1C2 (centres undefined) [RENZAPRIDE] | > 20 | > 20
NC(=O)c1csc(C2OC(CO)C(O)C2O)n1 (centres undefined) | > 20 | > 20
Nc1ncnc2c1ccn2[C@@H]1O[C@H](CO)[C@@H](O)[C@H]1O [TUBERCIDIN] | > 20 | > 20
C/C=C/C[C@@H](C)[C@@H](O)[C@H]1C(=O)N[C@@H](CC)C(=O)N(C)[C@H](C)C(=O)N(CC)[C@@H](C(C)C)C(=O)N[C@@H](C(C)C)C(=O)N(C)[C@@H](CC(C)C)C(=O)N[C@@H](C)C(=O)N[C@H](C)C(=O)N(C)[C@@H](CC(C)C)C(=O)N(C)[C@@H](CC(C)C)C(=O)N(C)[C@@H](C(C)C)C(=O)N1C [ALISPORIVIR] | > 20 | > 20
CCCc1cc2c(O)c(C(=O)OC)cnc2cc1N(CC)CC [AMQUINATE] | > 20 | > 20
CCC(=O)NS(=O)(=O)c1ccc(-c2c(-c3ccccc3)noc2C)cc1 [PARECOXIB] | > 20 | > 20
COc1ccccc1N1CCN(CCCNc2cc(=O)n(C)c(=O)n2C)CC1 | > 20 | > 20
CCOC(=O)c1ccc(OC(=O)CCCCCNC(=N)N)cc1 [GABEXATE] | > 20 | > 20
CN(C)CC/C=C1/c2ccccc2COc2ccc(CC(=O)O)cc21 [OLOPATADINE] | > 20 | > 20
C[C@@]12CCC3[C@@](CC[C@@H]4[C@](C)(C(=O)O)CCC[C@@]34C)(CC1=O)C2 (some centres undefined) | > 20 | > 20
O=C(O)C1CCCN(CCC=C2c3ccccc3CCc3ccccc32)C1 (centres undefined) | > 20 | > 20
CC(=O)OCC(=O)C1(O)CCC2C3CCC4=CC(=O)C=CC4(C)C3C(O)CC21C (centres undefined) | > 20 | > 20
Nc1cc(C(F)(F)F)c(-c2cc(N3CCOCC3)nc(N3CCOCC3)n2)cn1 [BUPARLISIB] | > 20 | > 20
CCc1ccc(C(=O)COc2ccc(CC3SC(=O)NC3=O)cc2)nc1 (centres undefined) [MITOGLITAZONE] | > 20 | > 20
O=C(c1ccc2nccnc2c1)N1CCCCC1 [CX516] | > 20 | > 20
COCCCC/C(=N\OCCN)c1ccc(C(F)(F)F)cc1 [FLUVOXAMINE] | > 20 | > 20
CN1C(=O)CC(=O)N(c2ccccc2)c2cc(C(F)(F)F)ccc21 [TRIFLUBAZAM] | > 20 | > 20
O=[N+]([O-])c1cc([As](=O)(O)O)ccc1O [ROXARSONE] | > 20 | > 20
Cc1ncccc1NC(=O)c1ccc2c(c1)CC[C@@H]1C[C@@](OP(=O)(O)O)(C(F)(F)F)CC[C@@]21Cc1ccccc1 [FOSDAGROCORAT] | > 20 | > 20
